Data: patent publication US10105357B2, “Indication of antibiotic drugs for preparation of cancer inhibition pharmaceutical composition” (LAUNX BIOMEDICAL CO., LTD., priority 2014, dated 2018)
Structures can show the parent of a compound that is named as a salt. Where two headings read alike, the source gives them in different places.

Experiments:
Assay type in all cases: cell-based, human
[1] = tested on: A549 (Lung Adenocarcinoma); experiment: Cell viability analysis, lung cancer A549; settings: for viability at 10 µM: Homo sapiens
[2] = tested on: MKN-45 (Gastric Adenocarcinoma); experiment: Cell viability analysis, gastric cancer MKN-45; settings: for viability at 10 µM: Homo sapiens
[3] = tested on: HL-60 (Acute Promyelocytic Leukemia); experiment: Cell viability analysis, leukemia HL-60; settings: for viability at 10 µM: Homo sapiens
[4] = tested on: TSGH-8301 (Urinary Bladder Carcinoma); experiment: Cell viability analysis, bladder cancer TSGH-8301; settings: for viability at 10 µM: Homo sapiens
[5] = tested on: MCF7 (Mammary Gland, Adenocarcinoma); experiment: Cell viability analysis, breast cancer MCF7; settings: Homo sapiens
[6] = tested on: cancer cell lines; experiment: Cell viability analysis (WST-1) on cancer cell lines; settings: drug 10 μM, 72 hours, WST-1; Table 3
[7] = tested on: AGS (Gastric Adenocarcinoma); experiment: Cell viability analysis, gastric cancer AGS; settings: for viability at 10 µM: Homo sapiens
[8] = tested on: LoVo (Colorectal Adenocarcinoma); experiment: Cell viability analysis, colon cancer LoVo; settings: Homo sapiens, LoVo
[9] = tested on: A375 (Amelanotic Melanoma); experiment: Cell viability analysis, skin cancer A375; settings: for viability at 10 µM: Homo sapiens
[10] = tested on: PC3 (p53−) (Prostate Adenocarcinoma); experiment: Cell viability analysis, prostate cancer PC3; settings: for viability at 10 µM: Homo sapiens
[11] = tested on: HI650 (Lung Adenocarcinoma); experiment: Cell viability analysis, lung cancer HI650; settings: for viability at 10 µM: Homo sapiens
[12] = tested on: HeLa (Cervix Adenocarcinoma); experiment: Cell viability analysis, cervical cancer HeLa; settings: Homo sapiens, HeLa
[13] = tested on: HepG2 (Hepatocellular Carcinoma); experiment: Cell viability analysis, hepatic cancer HepG2; settings: for viability at 10 µM: Homo sapiens
[14] = A549, 72 h, read-out: cell viability (survival rate), A549, drug 10 μM, 72 hours, WST-1, OD450 nm
[15] = MKN-45, 72 h, read-out: cell viability (survival rate), MKN-45, drug 10 μM, 72 hours, WST-1, OD450 nm
[16] = HL-60, 72 h, read-out: cell viability (survival rate), HL-60, drug 10 μM, 72 hours, WST-1, OD450 nm
[17] = 72 h, read-out: cell viability (survival rate), TSGH, drug 10 μM, 72 hours, WST-1, OD450 nm
[18] = MCF7, 72 h, read-out: cell viability (survival rate), MCF7, drug 10 μM, 72 hours, WST-1, OD450 nm
[19] = 72 h, read-out: cell viability (survival rate), AGS, drug 10 μM, 72 hours, WST-1, OD450 nm
[20] = 72 h, read-out: cell viability (survival rate), LoVo, drug 10 μM, 72 hours, WST-1, OD450 nm
[21] = A-375, 72 h, read-out: cell viability (survival rate), A375, drug 10 μM, 72 hours, WST-1, OD450 nm
[22] = 72 h, read-out: cell viability (survival rate), PC3, drug 10 μM, 72 hours, WST-1, OD450 nm
[23] = NCI-H1650, 72 h, read-out: cell viability (survival rate), H1650, drug 10 μM, 72 hours, WST-1, OD450 nm
[24] = 72 h, read-out: cell viability (survival rate), HeLa, drug 10 μM, 72 hours, WST-1, OD450 nm
[25] = A549, drug 10 μM, 72 hours, WST-1, OD450 nm, read-out: cell viability (survival rate), A549
[26] = MKN-45, drug 10 μM, 72 hours, WST-1, OD450 nm, read-out: cell viability (survival rate), MKN-45
[27] = HL-60, drug 10 μM, 72 hours, WST-1, OD450 nm, read-out: cell viability (survival rate), HL-60
[28] = drug 10 μM, 72 hours, WST-1, OD450 nm, read-out: cell viability (survival rate), TSGH
[29] = drug 10 μM, 72 hours, WST-1, OD450 nm, read-out: cell viability (survival rate), AGS
[30] = A-375, drug 10 μM, 72 hours, WST-1, OD450 nm, read-out: cell viability (survival rate), A375
[31] = HepG2, drug 10 μM, 72 hours, WST-1, OD450 nm, read-out: cell viability (survival rate), HepG2
[32] = NCI-H1650, drug 10 μM, 72 hours, WST-1, OD450 nm, read-out: cell viability (survival rate), H1650
[33] = drug 10 μM, 72 hours, WST-1, OD450 nm, read-out: cell viability (survival rate), HeLa
[34] = drug 10 μM, 72 hours, WST-1, OD450 nm

Molecule | viability at 10 µM [1, 14] [%] | viability at 10 µM [2, 15] [%] | viability at 10 µM [3, 16] [%] | viability at 10 µM [4, 17] [%] | viability at 10 µM [5, 18] [%] | inhibition effect on different cancer cell lines [6] | viability at 10 µM [7, 19] [%] | viability at 10 µM [8, 20] [%] | viability at 10 µM [9, 21] [%] | viability at 10 µM [10, 22] [%] | viability at 10 µM [11, 23] [%] | viability at 10 µM [12, 24] [%] | further results
CCN1CCN(C(=O)N[C@@H](C(=O)N[C@@H]2C(=O)N3C(C(=O)O)=C(CSc4nnnn4C)CS[C@H]23)c2ccc(O)cc2)C(=O)C1=O [Cefoperazone (Cefobid), Cefoperazone] | 76.5 | 51.6 | 111 | 60.3 | 50.1 | significant inhibition effect | 98.6 | 105 | 90 | 104 | 98.4 | 91.7 | –
CC(C)(C)C(=O)C(Oc1ccc(Cl)cc1)n1ccnc1 (stereo not drawn) [Climbazole] | – | – | – | – | – | significant inhibition effect | – | – | – | – | – | – | viability at 10 µM [1, 25]: 72.7%; viability at 10 µM [2, 26]: 97.7%; viability at 10 µM [3, 27]: 111%; viability at 10 µM [4, 28]: 102%; viability at 10 µM [7, 29]: 93.3%; viability at 10 µM [9, 30]: 70.6%; viability at 10 µM ([10]; drug 10 μM, 72 hours, WST-1, OD450 nm, read-out: cell viability (survival rate), PC3): 99.6%; viability at 10 µM [13, 31]: 94.4%; viability at 10 µM [11, 32]: 84.2%; viability at 10 µM [12, 33]: 94%
COc1c(N2C[C@@H]3CCCN[C@@H]3C2)c(F)cc2c(=O)c(C(=O)O)cn(C3CC3)c12 [Moxifloxacin hydrochloride] | 95.5 | 89 | 97.1 | 75.7 | 90.3 | significant inhibition effect | 77.1 | 102 | 94 | 69.1 | 70.9 | 92 | –
NC[C@@H]1O[C@H](O[C@H]2[C@@H](O)[C@H](O[C@@H]3[C@@H](O)[C@H](N)C[C@H](N)[C@H]3O[C@H]3O[C@H](CO)[C@@H](O)[C@H](O)[C@H]3N)O[C@@H]2CO)[C@H](N)[C@@H](O)[C@@H]1O [Paromomycin Sulfate] | 78.2 | 92.1 | 87.1 | 106 | 112 | significant inhibition effect | 80.2 | 67.1 | 91.4 | 146 | 99 | 96.2 | –
Fc1ccc([C@@H]2CCNC[C@H]2COc2ccc3c(c2)OCO3)cc1 [Paroxetine HCl] | 80.1 | 49.2 | 79.1 | 56.4 | 56.4 | significant inhibition effect | 21.5 | – | 31.9 | 70.6 | 44.1 | 42.1 | –
Oc1ccc(C=Cc2cc(O)cc(O)c2)cc1 [Resveratrol] | 72.5 | 91.8 | 76.4 | 85.3 | 71.8 | significant inhibition effect | 47.9 | 83.2 | 53 | 75 | 54.6 | 108 | –
Cc1cc2nc3c(=O)[nH]c(=O)nc-3n(C[C@H](O)[C@H](O)[C@H](O)CO)c2cc1C [Riboflavin (Vitamin B2), Riboflavin] | 67.6 | 87.3 | 90 | 79.7 | – | significant inhibition effect | 74.9 | 83.3 | 89.7 | 79.4 | 51.1 | 128 | –
Cc1ccnc(NS(=O)(=O)c2ccc(N)cc2)n1 [Sulfamerazine] | 103 | 87.4 | 105 | 90 | 79.8 | significant inhibition effect | 87.9 | 99.6 | 80.4 | 78.4 | 108 | 92.3 | –
Nc1ccc(S(N)(=O)=O)cc1 [Sulfanilamide] | 82.7 | 59.1 | 112 | 76.5 | 105 | significant inhibition effect | 65.3 | 85 | 84.6 | 111 | 66.7 | 82.1 | –
C=C(NC(=O)C(=C)NC(=O)c1csc(C2=N[C@@H]3c4csc(n4)[C@H]4NC(=O)c5csc(n5)[C@H]([C@](C)(O)[C@@H](C)O)NC(=O)[C@H]5CSC(=N5)/C(=C/C)NC(=O)[C@H]([C@@H](C)O)NC(=O)c5csc(n5)[C@]3(CC2)NC(=O)[C@H](C)NC(=O)C(=C)NC(=O)[C@H](C)NC(=O)[C@H]([C@@H](C)CC)N[C@@H]2C=Cc3c([C@H](C)O)cc(nc3[C@H]2O)C(=O)O[C@@H]4C)n1)C(N)=O [Thiostrepton] | – | – | – | – | – | significant inhibition effect | – | – | – | – | – | – | viability at 10 µM [1, 25]: 62.2%; viability at 10 µM [2, 26]: 56.7%; viability at 10 µM [3, 27]: 37.8%; viability at 10 µM [4, 28]: 20.1%; viability at 10 µM ([5]; MCF7, drug 10 μM, 72 hours, WST-1, OD450 nm, read-out: cell viability (survival rate), MCF7): 65%; viability at 10 µM [7, 29]: 25.7%; viability at 10 µM ([8]; drug 10 μM, 72 hours, WST-1, OD450 nm, read-out: cell viability (survival rate), LoVo): 52.9%; viability at 10 µM [9, 30]: 27.6%; viability at 10 µM [13, 31]: 49.2%; viability at 10 µM [11, 32]: 45.4%; viability at 10 µM [12, 33]: 37.8%
C[C@@H](c1ncncc1F)[C@](O)(Cn1cncn1)c1ccc(F)cc1F [Voriconazole] | 82.9 | 104 | 94.3 | 53.9 | 90.1 | significant inhibition effect | 86.1 | – | 102 | 97 | 102 | 92.6 | –
Nc1ccn([C@H]2CC[C@@H](CO)O2)c(=O)n1 [Zalcitabine] | 66.3 | 70.4 | 119 | 79 | 52.7 | significant inhibition effect | 69.1 | 91 | 83.5 | – | 86.4 | 89.2 | viability at 10 µM ([13]; HepG2, 72 h, read-out: cell viability (survival rate), HepG2, drug 10 μM, 72 hours, WST-1, OD450 nm): 96.9%
Caspofungin acetate | – | – | – | – | – | significant inhibition effect | – | – | – | – | – | – | cell viability (survival rate), A549 [1, 34]: 78.4; cell viability (survival rate), MKN-45 [2, 34]: 36.4; cell viability (survival rate), HL-60 [3, 34]: 124.4; cell viability (survival rate), TSGH [4, 34]: 123.7; cell viability (survival rate), AGS [7, 34]: 94.2; cell viability (survival rate), A375 [9, 34]: 70.5; cell viability (survival rate), PC3 [10, 34]: 59.4; cell viability (survival rate), HepG2 [13, 34]: 95.3; cell viability (survival rate), H1650 [11, 34]: 37.1
